Consider two molecules from patent US20110288093A1 (priority 2010, published 2011).

The test system of test [1] is cholera toxin (CTX). Set-up: species or system mice (CD1 strain). The conditions noted are these: mouse, in vivo.
Test [2] concerns Calcium activated chloride conductance (CaCC). Nature of the test: Whole cell patch clamp recordings of CaCC in JME/CF15 cells. The format is cell-based. How it is done: (§1) Compound 2 was tested in whole cell patch clamp recordings for its specific effect on the swelling-activated chloride conductance (VRAC), and the Calcium activated chloride conductance (CaCC). CaCC and VRAC were investigated in JME/CF15 cells. […] Effect of compound 2 was tested in 2 runs at 1 and 10 μM, respectively, on CaCC, and VRAC.
(§2) JME/CF15 cells (see Jefferson et al. “Expression of normal and cystic fibrosis phenotypes by continuous airway epithelial cell lines” Am J Physiol. (1990) 259:L496-L505) were cultured as described (see Schwarzer et al. “Organelle redox of CF and CFTR-corrected airway epithelia measured with roGFP1” Free Radic Biol Med. (2007) 43:300-316, incorporated herein by reference in its entirety) and were seeded onto glass cover slips at low density and used 1 to 2 days after seeding
(§3) Whole cell patch clamp experiments were performed as described (see Fischer et al. “Basolateral C1 channels in primary airway epithelial cultures” Am J Physiol Lung Cell Mol Physiol. (2007) 292:L1432-L1443, incorporated herein by reference in its entirety), the pipette solution contained (in mM): 140 HCl, 160 N-methyl-D-glucamine (NMDG), 1 MgCl2, 5 Hepes, 1 glucose, 5 MgATP, pH 7.4. To investigate VRAC, the pipette contained in addition 5 mM EGTA. To investigate CaCC, the intracellular free Ca concentration was buffered to ˜500 nM by adding 1.8 mM CaCl2 and 2 mM EGTA. […]

Test [3] relates to swelling-activated chloride conductance (VRAC). Nature of the test: Whole cell patch clamp recordings of VRAC in JME/CF15 cells. Format: cell-based. On the procedure:
as §1, §2, §3

The mark [4] stands for this setting: 10 μM, 0% indicates complete block and 100% indicates no block.
[5] abbreviates: tested at 1 and 10 μM, block stronger at depolarizing (positive) potential.

Entries after “also recorded” stand apart in the source; their conditions may differ.

`O=C(NCc1ccc(Oc2ccccc2)cc1)c1nc(-c2cc(Br)c(O)c(Br)c2)no1` [BF'032, 3-(3,5-dibromo-4-hydroxyphenyl)-N-(4-phenoxybenzyl)-1,2,4-oxadiazole-5-carboxamide]: in test [1], the “inhibition of CTX-induced fluid secretion” value came out at 90.16%; the “inhibition of fluid secretion (in words)” value is given as “statistically significant inhibition”; the “net fluid secretion (loop weight/loop length), CTX loop” value was 0.06482 g/cm of loop.

With `O=S(=O)(Nc1cccc(-c2ccc(OCCc3ccc(Cl)cc3)nn2)c1)C(F)(F)F` [compound 2, N-(3-(6-(4-chlorophenethoxy)pyridazin-3-yl)phenyl)-1,1,1-trifluoromethanesulfonamide], the “inhibition of fluid secretion (in words)” value in test [1] is “statistically significant inhibition”. The “current remaining in CaCC after the addition of compound” value in test [2] (setting [4]) turned out to be 64%. Also, the “block of CaCC (in words)” value in test [2] (setting [5]) is “blocks CaCC and that the block is voltage dependent; also recorded: blocked CaCC and the block was voltage dependent”. Moreover, the “current remaining in VRAC” value in test [3] (setting [4]) came out at 23%. Besides, in test [3] (setting [5]), the “block of VRAC (in words)” value is “blocks VRAC significantly and that the block is voltage dependent; also recorded: blocked VRAC significantly and the block was voltage dependent”.
